For assay [1], the system named is MiaPaca-2 (expressing KRAS G12C mutant). In words: Proliferation Assay (Cell Viability Assay). The format is cell-based. The following applies: Homo sapiens, MIA PaCa-2; read-out: Proliferation in MiaPaca-2: IC50. The essentials: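 After 2–4 days' exposure at 37 °C, 5% CO2 to a single 10 μM final concentration or a dilution series (IC50), percent proliferation inhibition was derived from CellTiter 96 Aqueous One viability readings. The medium contained 0.3% DMSO and 10% FBS. KRAS G12C MiaPaca-2 cells were plated at 2000–5000/well the day before.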

The test system of assay [2] is Smad2/Smad3 phosphorylation. In words: Phospho-Smad2/3 Inhibition Assay (western blot), Panc-1. The following applies: at 10 μM, Panc-1 pancreatic cancer cell line; starred symbols = activation. The format is cell-based, human. The essentials:
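Western blotting of lysates (15-50 μg protein) read phosphorylation of Smad2 Ser465/467 and Smad3 Ser423/425. Before lysis, Panc-1 cells got 1 h of 10 ng/ml TGF-b1 following 3 h compound exposure at 37° C (10 μM final, or serial dilutions for IC50, 0.3% DMSO) after overnight 0.5% FBS starvation.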
On the technique in general: Immunoblotting shows a protein as a band on a membrane.

Assay [3] concerns TNF-alpha. In words: TNF-alpha Quantification Assay (ELISA), LPS-stimulated RAW 264.7. The format is cell-based. As to conditions: Mus musculus, RAW264.7; at 10 μM; read-out: TNFα: % inh. For orientation: ELISA stands for enzyme-linked immunosorbent assay.

Molecules are shown by their SMILES.

As for `COc1cccc(-c2cn3nc(-c4nccn4C)nc(N[C@@H]4CC[C@H](OC)C4)c3c2-c2ccccc2)c1Cl` (racemic) [Compound 33, rac 6-(2-Chloro-3-methoxyphenyl)-N-((1R,3S)-3-methoxycyclopentyl)-2-(1-methyl-1H-imidazol-2-yl)-5-phenylpyrrolo[2,1-f][1,2,4]triazin-4-amine], the IC50 in assay [1] is 510 to 1000 nM. The “% inh of Smad2/3 phosphorylation in Panc-1” value (“% inh” for short) in assay [2] is recorded as “D (D = 76-100% inhibition)”. The inhibition at 10 µM in assay [3] fell in the range of 75 to 100%.

Regarding `Cc1c(-c2ccn(C)n2)cn2nc(-c3nccn3C)nc(Nc3cc(-c4ccncc4)[nH]n3)c12` [Compound 266, 5-Methyl-2-(1-methyl-1H-imidazol-2-yl)-6-(1-methyl-1H-pyrazol-3-yl)-N-(5-(pyridin-4-yl)-1H-pyrazol-3-yl)pyrrolo[2,1-f][1,2,4]triazin-4-amine], the IC50 in assay [1] is < 150 nM. Moreover, the “% inh” value in assay [2] is given as “D* (D* = 76-100% activation)”. Further, the inhibition at 10 µM in assay [3] was found to be 0%.

Consider `Cc1c(-c2ccn(C)n2)cn2nc(-c3nccn3C)nc(Nc3ccc(-c4ccccn4)cn3)c12` [Compound 249, N-([2,3′-Bipyridin]-6′-yl)-5-methyl-2-(1-methyl-1H-imidazol-2-yl)-6-(1-methyl-1H-pyrazol-3-yl)pyrrolo[2,1-f][1,2,4]triazin-4-amine], for which the IC50 in assay [1] is < 150 nM. The “% inh” value in assay [2] is reported as 0 (0 = 0% inhibition). Also, the inhibition at 10 µM in assay [3] was 1 to 24%.

In the case of `Cc1c(-c2ccn(C)n2)cn2nc(-c3nccn3C)nc(Nc3cc(-c4cccnc4)[nH]n3)c12` [Compound 264, 5-Methyl-2-(1-methyl-1H-imidazol-2-yl)-6-(1-methyl-1H-pyrazol-3-yl)-N-(5-(pyridin-3-yl)-1H-pyrazol-3-yl)pyrrolo[2,1-f][1,2,4]triazin-4-amine], the IC50 in assay [1] is 150 to 500 nM. In assay [2], the “% inh” value is “A (A = 1-25% inhibition)”. In addition, the inhibition at 10 µM in assay [3] is 25 to 49%.

For `COc1cccc(-c2cn3nc(-c4nccn4C)nc(N[C@@H]4CC[C@H]4OC)c3c2-c2ccccc2)c1C` (racemic) [Compound 272, rac 6-(3-Methoxy-2-methylphenyl)-N-((1R,2R)-2-methoxycyclobutyl)-2-(1-methyl-1H-imidazol-2-yl)-5-phenylpyrrolo[2,1-f][1,2,4]triazin-4-amine], the IC50 in assay [1] is > 1000 nM. The “% inh” value in assay [2] was “D (D = 76-100% inhibition)”. The inhibition at 10 µM in assay [3] fell in the range of 75 to 100%.

Consider `COCC1CCN(c2nc(-c3ccccn3)nn3cc(-c4ccn(C(C)C)n4)c(-c4ccccc4)c23)C1` (racemic) [Compound 25, rac 6-(1-Isopropyl-1H-pyrazol-3-yl)-4-(3-(methoxymethyl)pyrrolidin-1-yl)-5-phenyl-2-(pyridin-2-yl)pyrrolo[2,1-f][1,2,4]triazine], for which the IC50 in assay [1] was > 1000 nM. In assay [2], the “% inh” value was 0 (0 = 0% inhibition). Further, in assay [3], the inhibition at 10 µM lay in the range of 1 to 24%.

Turning to `CO[C@H]1C[C@H](Nc2nc(-c3nccn3C)nn3cc(-c4ccn(C)n4)c(C4CC4)c23)C1` [Compound 275, 5-Cyclopropyl-N-((1r,3r)-3-methoxycyclobutyl)-2-(1-methyl-1H-imidazol-2-yl)-6-(1-methyl-1H-pyrazol-3-yl)pyrrolo[2,1-f][1,2,4]triazin-4-amine], the IC50 in assay [1] is > 1000 nM. Besides, the “% inh” value in assay [2] was “B (B = 26-45% inhibition)”. In addition, the inhibition at 10 µM in assay [3] came out at 0%.

With `COCCCNc1nc(-c2nccn2C)nn2cc(-c3cccc(OC)c3Cl)c(-c3ccccc3)c12` [Compound 30, 6-(2-Chloro-3-methoxyphenyl)-N-(3-methoxypropyl)-2-(1-methyl-1H-imidazol-2-yl)-5-phenylpyrrolo[2,1-f][1,2,4]triazin-4-amine], in assay [1], the IC50 was 510 to 1000 nM. The “% inh” value in assay [2] is reported as “D (D = 76-100% inhibition)”. For the same molecule, the inhibition at 10 µM in assay [3] lay within 75 to 100%.

Values taken from patent US12459951B2, “Compounds that interact with RAS superfamily proteins for treatment of cancers, inflammatory diseases, rasopathies, and fibrotic disease” (SHY Therapeutics, LLC, priority 2022, dated 2025).
